According to paper PMC4826033 (ACS chemical biology, 2015):

Experiments:
[1] = system: 20S proteasome; conditions: cited from earlier work
[2] = system: E. coli indicator strain ATCC 27856; experiment: Antibacterial activity against E. coli indicator strain; assay type: cell-based; conditions: data not shown

C=C(NC(=O)C(=C)NC(=O)c1csc(C2=N[C@@H]3c4csc(n4)[C@H]4NC(=O)c5csc(n5)[C@H]([C@](C)(O)[C@@H](C)O)NC(=O)[C@H]5CSC(=N5)/C(=C/C)NC(=O)[C@H]([C@@H](C)O)NC(=O)c5csc(n5)[C@]3(CC2)NC(=O)[C@H](C)NC(=O)C(=C)NC(=O)[C@H](C)NC(=O)[C@H]([C@@H](C)CC)N[C@@H]2C=Cc3c([C@H](C)O)cc(nc3[C@H]2O)C(=O)O[C@@H]4C)n1)C(N)=O [Thiostrepton A]
proteasome inhibitory properties (in words) [1]: active proteasome inhibitors
antibacterial activity against E. coli [2]: Neither thiostrepton A nor its Ala4 variants displayed any antibacterial activity

C/C=C(\NC(=O)c1csc(-c2csc(-c3ccc4c(n3)-c3csc(n3)[C@H]([C@@H](C)O)NC(=O)c3csc(n3)[C@H](C(C)C)NC(=O)c3csc(n3)/C(=C/C)NC(=O)[C@H]([C@@H](C)O)NC(=O)c3csc-4n3)n2)n1)C(=O)NC[C@@H](C)O [micrococcin P1]
proteasome inhibitory properties (in words) [1]: have not yet revealed any proteasome inhibitory properties

C=C(NC(=O)C(=C)NC(=O)c1csc(C2=NC3c4csc(n4)[C@H]4NC(=O)c5csc(n5)[C@H]([C@](C)(O)[C@@H](C)O)NC(=O)[C@H]5CSC(=N5)/C(=C/C)NC(=O)[C@H]([C@@H](C)O)NC(=O)c5csc(n5)[C@@]3(CC2)NC(=O)[C@H](C)NC(=O)C(=C)NC(=O)C(=C)NC(=O)[C@H](C(C)C)N[C@@H]2C=Cc3c([C@H](C)O)cc(nc3[C@H]2O)C(=O)O[C@@H]4C)n1)C(N)=O (some centres unmarked) [siomycin]
proteasome inhibitory properties (in words) [1]: active proteasome inhibitors

C/C=C(\NC(=O)c1csc(-c2csc(-c3ccc4c(n3)-c3csc(n3)[C@H]([C@@H](C)O)NC(=O)c3csc(n3)[C@H](C(C)(C)O)NC(=O)c3csc(n3)/C(=C/C)NC(=O)[C@H]([C@@H](C)O)NC(=O)c3csc-4n3)n2)n1)C(=O)NC[C@@H](C)O [thiocillin I]
proteasome inhibitory properties (in words) [1]: have not yet revealed any proteasome inhibitory properties
